For test [1], the system named is CCL17 secretion in peripheral human whole blood. Description: Human Whole Blood (HWB) CCL17 TR-FRET Assay (IL-13 stimulated CCL17 secretion). It counts as cell-based. As to conditions: inhibition of CCL17 secretion in human whole blood, 10 ng/mL IL13, 48 hours. In outline: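 Compounds are titrated (11 points, 3-fold, duplicate) into fresh heparinized human whole blood and held 2 h at 37 °C before IL-13 challenge (10 ng/mL final). After 48 h at 37 °C, serum CCL17 is measured by TR-FRET sandwich assay and IC50 values are calculated.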
Background: In TR-FRET formats the signal depends on donor and acceptor labels being close together.

In test [2] the target is T1, STAT6 (Homo sapiens, UniProt P42226).
T1 construct: stably transfected HaCaT keratinocyte cell line, which expresses NanoLuc luciferase reporter gene under the transcriptional control of the STAT6 responsive promoter; endogenous in cells; host or cells: HaCaT keratinocyte reporter cell line (stably transfected with a NanoLuc reporter)
T1 sequence (P42226 1-847): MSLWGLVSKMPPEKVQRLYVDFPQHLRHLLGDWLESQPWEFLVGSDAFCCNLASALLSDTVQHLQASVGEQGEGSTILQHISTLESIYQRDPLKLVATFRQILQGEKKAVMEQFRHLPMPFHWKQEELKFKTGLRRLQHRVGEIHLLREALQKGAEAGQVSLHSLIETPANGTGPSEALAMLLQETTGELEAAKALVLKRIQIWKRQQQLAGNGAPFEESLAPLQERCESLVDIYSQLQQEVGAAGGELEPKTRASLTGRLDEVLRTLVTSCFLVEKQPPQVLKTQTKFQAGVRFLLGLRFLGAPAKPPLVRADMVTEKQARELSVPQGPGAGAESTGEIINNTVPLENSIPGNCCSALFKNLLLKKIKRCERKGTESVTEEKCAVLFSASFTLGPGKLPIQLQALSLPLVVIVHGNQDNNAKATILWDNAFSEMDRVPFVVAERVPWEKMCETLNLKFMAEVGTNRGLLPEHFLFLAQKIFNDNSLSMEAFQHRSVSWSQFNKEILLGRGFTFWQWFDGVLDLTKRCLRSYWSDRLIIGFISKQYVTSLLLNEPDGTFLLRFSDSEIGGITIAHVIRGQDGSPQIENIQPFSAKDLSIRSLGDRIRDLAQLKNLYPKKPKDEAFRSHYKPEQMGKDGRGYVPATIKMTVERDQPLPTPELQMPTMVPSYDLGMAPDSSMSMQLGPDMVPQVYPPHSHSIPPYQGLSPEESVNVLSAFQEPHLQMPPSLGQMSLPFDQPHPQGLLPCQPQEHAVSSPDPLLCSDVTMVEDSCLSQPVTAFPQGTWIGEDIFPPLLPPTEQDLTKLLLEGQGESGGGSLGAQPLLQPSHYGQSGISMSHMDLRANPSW
Description: STAT6 Reporter Luciferase Assay (IL-13 stimulated HaCaT keratinocyte NanoLuc reporter cells). It counts as cell-based. The settings on record: STAT6 NanoLuc luciferase reporter, IL-13 stimulated HaCaT keratinocyte cells; read-out: Reporter EC50. In outline:
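Cells were plated overnight, washed, exposed to compound for two hours, stimulated with IL-13 (0.12 nM final) for four hours at 37 °C, and then lysed with Nano-Glo substrate for 15 min before luminescence reading.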

Here are results for 19 compounds from patent publication US20250320213A1, “Nitrogen-Containing Heterocyclic Compounds” (Pfizer Inc., priority 2024, published 2025).

Take `CN(C)C(=O)Nc1ccc(CNC(=O)c2nn(C3(C)CC3)c3c2CN(c2ccc(C(=O)N(C)C)cn2)CC3)cc1` [Example 20, 5-(5-(dimethylcarbamoyl)pyridin-2-yl)-N-(4-(3,3-dimethylureido)benzyl)-1-(1-methylcyclopropyl)-4,5,6,7-tetrahydro-1H-pyrazolo[4,3-c]pyridine-3-carboxamide]: the concentration for half-maximal inhibition (IC50) in test [1] (Homo sapiens, 48 h) amounted to 72 nM. Moreover, the EC50 in test [2] worked out at 6 nM.

The compound `CCn1nc(C(=O)NCc2ccc(-c3ncc[nH]3)cc2)c2c1CCN(c1ccc(C(=O)N(C)C)cn1)C2` [Example 21, N-(4-(1H-imidazol-2-yl)benzyl)-5-(5-(dimethylcarbamoyl)pyridin-2-yl)-1-ethyl-4,5,6,7-tetrahydro-1H-pyrazolo[4,3-c]pyridine-3-carboxamide] had an IC50 in test [1] (Homo sapiens, 48 h) of 217 nM. For the same compound, the 50% effective concentration (EC50) in test [2] was 33 nM.

In test [1] (Homo sapiens, 48 h), `CN(C)C(=O)Nc1ccc(CNC(=O)c2nc(C(F)(F)F)n3c2CN(c2ccc(C(=O)N(C)C)cn2)CC3)cc1` [Example 22, 7-(5-(dimethylcarbamoyl)pyridin-2-yl)-N-(4-(3,3-dimethylureido)benzyl)-3-(trifluoromethyl)-5,6,7,8-tetrahydroimidazo[1,5-a]pyrazine-1-carboxamide] returned an IC50 of 54 nM. Moreover, the half-maximal effective concentration (EC50) in test [2] is 21 nM.

`CCn1nc(C(=O)NCc2ccc(NC(=O)N(C)C)cc2)c2c1CCN(c1ccc(-c3ncnn3C)cn1)C2` [Example 23, N-(4-(3,3-Dimethylureido)benzyl)-1-ethyl-5-(5-(1-methyl-1H-1,2,4-triazol-5-yl)pyridin-2-yl)-4,5,6,7-tetrahydro-1H-pyrazolo[4,3-c]pyridine-3-carboxamide]: in test [1] (Homo sapiens, 48 h), it took 62 nM to reach half-maximal inhibition (IC50). Besides, the concentration giving a half-maximal response (EC50) in test [2] came to 6 nM.

For the compound `CN(C)C(=O)Nc1ccc(CNC(=O)c2nnn3c2CN(c2ccc(C(=O)N(C)C)cn2)CC3)cc1` [Example 24, 5-(5-(dimethylcarbamoyl)pyridin-2-yl)-N-(4-(3,3-dimethylureido)benzyl)-4,5,6,7-tetrahydro-[1,2,3]triazolo[1,5-a]pyrazine-3-carboxamide], the IC50 in test [1] (Homo sapiens, 48 h) was determined as 346 nM. For the same compound, the concentration giving a half-maximal response (EC50) in test [2] came out at 384 nM.

For `CN(C)C(=O)Nc1ccc(CNC(=O)c2csc3c2CN(c2ccc(C(=O)N(C)C)cn2)CC3)cc1` [Example 25, 5-(5-(dimethylcarbamoyl)pyridin-2-yl)-N-(4-(3,3-dimethylureido)benzyl)-4,5,6,7-tetrahydrothieno[3,2-c]pyridine-3-carboxamide], the half-maximal inhibitory concentration (IC50) in test [1] (Homo sapiens, 48 h) was found to be 1490 nM. For the same compound, in test [2], the EC50 was determined as 164 nM.

In test [1] (Homo sapiens, 48 h), `CC(C)n1nc(C(=O)NCc2ccc(NC(=O)N(C)C)cc2)c2c1CCN(c1ccc(-c3ncnn3C)cn1)C2` [Example 27, N-(4-(3,3-dimethylureido)benzyl)-1-isopropyl-5-(5-(1-methyl-1H-1,2,4-triazol-5-yl)pyridin-2-yl)-4,5,6,7-tetrahydro-1H-pyrazolo[4,3-c]pyridine-3-carboxamide] displayed a half-inhibitory concentration (IC50) of 91 nM. For the same compound, the EC50 in test [2] was determined as 6 nM.

As for `CN(C)C(=O)Nc1ccc(CNC(=O)c2noc3c2CN(c2ccc(C(=O)N(C)C)cn2)CC3)cc1` [Example 28, 5-(5-(dimethylcarbamoyl)pyridin-2-yl)-N-(4-(3,3-dimethylureido)benzyl)-4,5,6,7-tetrahydroisoxazolo[4,5-c]pyridine-3-carboxamide], in test [1] (Homo sapiens, 48 h), the IC50 came to 313 nM. The EC50 in test [2] worked out at 46 nM.

In test [1] (Homo sapiens, 48 h), `CN(C)C(=O)Nc1ccc(CNC(=O)c2cnn3c2CN(c2ccc(C(=O)N(C)C)cn2)CC3)cc1` [Example 29, 5-(5-(dimethylcarbamoyl)pyridin-2-yl)-N-(4-(3,3-dimethylureido)benzyl)-4,5,6,7-tetrahydropyrazolo[1,5-a]pyrazine-3-carboxamide] returned a 50% inhibitory concentration (IC50) of 878 nM. In addition, the concentration giving a half-maximal response (EC50) in test [2] was 2230 nM.

`CCn1nc(C(=O)NCc2ccc(NC(=O)N(C)C)cc2)c2c1CCN(c1ccc(-c3nccn3C)cn1)C2` [Example 30, N-(4-(3,3-Dimethylureido)benzyl)-1-ethyl-5-(5-(1-methyl-1H-imidazol-2-yl)pyridin-2-yl)-4,5,6,7-tetrahydro-1H-pyrazolo[4,3-c]pyridine-3-carboxamide] displayed an IC50 in test [1] (Homo sapiens, 48 h) of 87 nM. Moreover, the EC50 in test [2] was 5 nM.

In test [1] (Homo sapiens, 48 h), `CN(C)C(=O)Nc1ccc(CNC(=O)c2nn(CC(F)(F)F)c3c2CN(c2ccc(C(=O)N(C)C)cn2)CC3)cc1` [Example 31, 5-(5-(dimethylcarbamoyl)pyridin-2-yl)-N-(4-(3,3-dimethylureido)benzyl)-1-(2,2,2-trifluoroethyl)-4,5,6,7-tetrahydro-1H-pyrazolo[4,3-c]pyridine-3-carboxamide] returned a half-maximal inhibitory concentration (IC50) of 85 nM. Besides, in test [2], the EC50 worked out at 7 nM.

In test [1] (Homo sapiens, 48 h), `CC(C)c1nc(C(=O)NCc2ccc(NC(=O)N(C)C)cc2)c2n1CCN(c1ccc(C(=O)N(C)C)cn1)C2` [Example 32, 7-(5-(dimethylcarbamoyl)pyridin-2-yl)-N-(4-(3,3-dimethylureido)benzyl)-3-isopropyl-5,6,7,8-tetrahydroimidazo[1,5-a]pyrazine-1-carboxamide] came in with an IC50 of 40 nM. The half-maximal effective concentration (EC50) in test [2] came to 9 nM.

Regarding `CC(C)n1nc(C(=O)NCc2ccc(NC(=O)N(C)C)cc2)c2c1CCN(c1ccc(C(=O)N3Cc4cccnc4C3)cn1)C2` [Example 33, 5-(5-(6,7-dihydro-5H-pyrrolo[3,4-b]pyridine-6-carbonyl)pyridin-2-yl)-N-(4-(3,3-dimethylureido)benzyl)-1-isopropyl-4,5,6,7-tetrahydro-1H-pyrazolo[4,3-c]pyridine-3-carboxamide], the IC50 in test [1] (Homo sapiens, 48 h) amounted to 35 nM. The EC50 in test [2] came out at 2 nM.

For the compound `CC(C)n1nc(C(=O)NCc2ccc(NC(=O)N(C)C)cc2)c2c1CCN(c1ncc(-c3nccn3C)cn1)C2` [Example 34, N-(4-(3,3-Dimethylureido)benzyl)-1-isopropyl-5-(5-(1-methyl-1H-imidazol-2-yl)pyrimidin-2-yl)-4,5,6,7-tetrahydro-1H-pyrazolo[4,3-c]pyridine-3-carboxamide], it took 71 nM to reach half-maximal inhibition in test [1] (Homo sapiens, 48 h) (IC50). In addition, the EC50 in test [2] is 8 nM.

In test [1], `CC(C)n1nc(C(=O)NCc2ccc(NC(=O)N(C)C)cc2)c2c1CCN(c1ncc(C(=O)N(C)C)cn1)C2` [Example 35, 5-(5-(Dimethylcarbamoyl)pyrimidin-2-yl)-N-(4-(3,3-dimethylureido)benzyl)-1-isopropyl-4,5,6,7-tetrahydro-1H-pyrazolo[4,3-c]pyridine-3-carboxamide] returned an IC50 of 47 nM. The EC50 in test [2] came out at 9 nM.

In test [1] (Homo sapiens, 48 h), `CCn1nc(C(=O)NCc2ccc(NC(=O)N(C)C)cc2)c2c1CCN(c1ccc(N3CCCC3=O)cn1)C2` [Example 36, N-(4-(3,3-Dimethylureido)benzyl)-1-ethyl-5-(5-(2-oxopyrrolidin-1-yl)pyridin-2-yl)-4,5,6,7-tetrahydro-1H-pyrazolo[4,3-c]pyridine-3-carboxamide] displayed a concentration for half-maximal inhibition (IC50) of 254 nM. Further, the concentration for a half-maximal effect (EC50) in test [2] turned out to be 24 nM.

`CC(=O)N1CCCc2cc(N3CCc4c(c(C(=O)NCc5ccc(NC(=O)N(C)C)cc5)nn4C(C)C)C3)ccc21` [Example 37, 5-(1-Acetyl-1,2,3,4-tetrahydroquinolin-6-yl)-N-(4-(3,3-dimethylureido)benzyl)-1-isopropyl-4,5,6,7-tetrahydro-1H-pyrazolo[4,3-c]pyridine-3-carboxamide] registered an IC50 in test [1] (Homo sapiens, 48 h) of 701 nM. In test [2], the half-maximal effective concentration (EC50) was 30 nM.

In the case of `CC(C)n1nc(C(=O)NCc2ccc(-c3ncc[nH]3)cc2)c2c1CCN(c1ccc(N3CCCC3=O)cn1)C2` [Example 38, N-(4-(1H-imidazol-2-yl)benzyl)-1-isopropyl-5-(5-(2-oxopyrrolidin-1-yl)pyridin-2-yl)-4,5,6,7-tetrahydro-1H-pyrazolo[4,3-c]pyridine-3-carboxamide], in test [1] (Homo sapiens, 48 h), the IC50 was determined as 1640 nM. Moreover, the EC50 in test [2] stood at 72 nM.

Consider `CC(C)n1nc(C(=O)NCc2ccc(NC(=O)N(C)C)cc2)c2c1CCN(c1ccc(C(=O)NCc3ccc(NC(=O)N(C)C)cc3)cn1)C2` [Example 39, N-(4-(3,3-Dimethylureido)benzyl)-5-(5-((4-(3,3-dimethylureido)benzyl)carbamoyl)pyridin-2-yl)-1-isopropyl-4,5,6,7-tetrahydro-1H-pyrazolo[4,3-c]pyridine-3-carboxamide], for which, in test [1] (Homo sapiens, 48 h), the concentration for half-maximal inhibition (IC50) was over 30000 nM. In addition, in test [2], the half-maximal effective concentration (EC50) was 748 nM.

For orientation: IC50 means the concentration needed to halve the response being measured. Low values mean greater potency in that assay, high ones weaker potency in that assay. The term EC50 denotes the concentration that produces a half-maximal response.
